Test results from PMC9698773, “Design, Synthesis, Molecular Modeling, and Anticancer Evaluation of New VEGFR-2 Inhibitors Based on the Indolin-2-One Scaffold” (Pharmaceuticals, 2022).

Experiments:
[1] = system: MCF-7 cell line; experiment: MTT cytotoxicity assay, MCF-7; type: cell-based, human; settings: for IC50: Homo sapiens, MCF7, MTT assay, mean ± SD of three experiments; for fold more potent than sunitinib, MCF-7: ratio of IC50 to sunitinib
Method: (§1) The cytotoxic activities against breast MCF-7 and liver HepG2 cancer cell lines for all the synthesized compounds 3a,b–17a,b were evaluated by MTT-based cytotoxicity assay. Sunitinib was selected as a reference standard in this study, and the results are presented as IC50 in Table 1.
(§2) The anticancer activities of the target compounds 3a,b–17a,b were quantitatively assessed using the MTT protocol against the MCF-7 and HepG2 cell lines, as described in the Supplementary Materials. […]
(§3) 4.2. Biological investigation
(§4) 4.2.1. In vitro cytotoxic activity assay
(§5) Citation: Abdelgawad, M.A.; Cell Line cells were obtained from the American Type Culture Collection. The cells Hayallah A.M.; Bukhari S.N.A.; were cultured using DMEM (Invitrogen/Life Technologies) supplemented with 10% FBS Musa A.; Elmowafy M.; (Hyclone,), 10 ug/ml of insulin (Sigma), and 1% penicillin‐streptomycin. All of the other Abdel‐Rahman, H.M.; chemicals and reagents were from Sigma or Invitrogen. Plate cells (cells density 1.2 – 1.8 Abd El‐Gaber, M.K. Design, × 10,000 cells/well) in a volume of 100μl complete growth medium + 100 μl of the tested Synthesis, Molecular Modeling, and compound per well in a 96‐well plate for 24 hours before the MTT assay. The tested com‐ Anticancer Evaluation of New pounds were dissolved in DMSO just before the test.
(§6) VEGFR‐2 Inhibitors Based on the Indolin‐2‐One Scaffold. 4.2.1.1. Cell culture protocol
(§7) Pharmaceuticals 2022, 15, x. The culture medium was removed to a centrifuge tube. The cell layer was briefly https://doi.org/10.3390/xxxxx rinsed with 5 mL of 0.25% (w/v) Trypsin and 3 mL of 0.53 mM EDTA solution to remove Academic Editor(s): Mary J. Meegan all traces of serum which contains Trypsin inhibitor. Next, 2.0 to 3.0 ml of Trypsin EDTA Received: 18 October 2022 solution was added to the flask and cells were observed under an inverted microscope Accepted: 9 November 2022 until the cell layer was dispersed (usually within 5 to 15 minutes). Then, 6.0 to 8.0 mL of Published: 14 November 2022 complete growth medium was added and cells aspirated by gently pipetting. The cell suspension was transferred to the centrifuge tube with the medium and cells from step 1, Publisher’s Note: MDPI stays neu‐and centrifuged at approximately 125 xg for 5 to 10 minutes. The supernatant was dis‐ tral with regard to jurisdictional carded and the cell pellet was suspended in fresh growth medium. Appropriate aliquots claims in published maps and institu‐ of the cell suspension were added to new culture vessels and incubated at 37°C for 24 hrs. tional affiliations. After treatment of cells with the serial concentrations of the compound to be tested, incu‐ bation was carried out for 48 h at 37 °C. The plates were examined under an inverted mi‐ croscope and proceeded for the MTT assay […]
(§8) Submitted for possible open access 4.2.1.2. […]
(§9) HepG‐2) were used in this test. At first, the cell lines were cultured in RPMI‐1640 medium Pharmaceuticals 2022, 15, x. https://doi.org/10.3390/xxxxx. www.mdpi.com/journal/pharmaceuticals […]
(§10) Pharmaceuticals 2022, 15, x FOR PEER REVIEW 2 of 22 with 10% fetal bovine serum. Antibiotics (100 units/ml penicillin and100 μg/ml strepto‐ mycin) were added at 37 °C in a 5% CO2 incubator. The cell lines were seeded in a 96‐well plate at a density of 1.0 x 10^4 cells / well at 37 °C for 48 h under 5% CO2. After incubation, the cells were treated with different concentrations of the synthesized compounds and incubated for 24 h. After 24 h of drug treatment, 20 μl of MTT solution (5mg/ml) was added and incubated for 4 h. 100 μl of dimethyl sulfoxide (DMSO) was added into each well to dissolve the formed purple formazan. The colored solution was measured and recorded at an absorbance of 570 nm using a plate reader (EXL 800, USA). The relative cell viability was calculated in percentage as (A570 of treated samples/A570 of untreated sam‐ ple) X 100. The half maximal inhibitory concentration (IC50) values were presented using […]

[2] = system: HepG2 cell line; experiment: MTT cytotoxicity assay, HepG2; type: cell-based, human; settings: mean ± SD of three experiments
Method: as §1, §2, §3, §4, §5, §6, §7, §8, §9, §10

[3] = target: VEGFR-2 (Homo sapiens, UniProt P35968); experiment: In vitro VEGFR-2 kinase inhibitory assay (VEGFR2 (KDR) Kinase Assay Kit)
Method: In vitro VEGFR‐2 kinase inhibitory assay
for their inhibitory activity against VEGFR‐2. Human BPS bioscience® VEGFR2 (KDR) Ki‐ nase Assay Kit (Enzyme‐Linked Immunosorbent Assay) was utilized in this test. The lu‐ minescent signal from the assay is correlated with the amount of ATP present and is in‐ versely correlated with the amount of kinase activity. The compounds were diluted to 100 μM in 10% DMSO and 5 ml of the diluted solution was added to a 50 ml reaction so that the final concentration of DMSO was 1% in all of reactions. All of the enzymatic reactions were conducted at 30 °C for 40 min. The 50 μl reaction mixture contains 40 μM Tris, pH 7.4, 10 μM MgCl2, 0.1 mg/ml BSA, 0.2 mg/ml Poly (Glu, Tyr) substrate, 10 μM ATP, and VEGFR‐2. After the enzymatic reaction, 50 ml of Kinase‐GloPlus Luminescence kinase as‐ say solution (Promega) was added to each reaction and the plate was incubated for 5 min at room temperature. Luminescence signal was measured using a BioTek Synergy 2 mi‐ croplate reader. The protein kinase assays used to determine IC50 values were performed using a ADP‐GloTM assay kit from Promega, which measures the generation of ADP by the protein kinase. Generation of ADP by the protein kinase reaction leads to an increase in luminescence signal in the presence of the ADP‐GloTM assay kit. The assay was started by incubating the reaction mixture in a 96‐well plate at 30 °C for 30 min. After the 30 mi n incubation period, the assay was terminated by the addition of 25 ml of ADP‐GloTM Re‐ agent (Promega). The 96‐well plate was shaken and then incubated for 40 min at ambient temperature; 50 ml of Kinase detection reagent was added, the 96‐well reaction plate wa s then read using the ADP‐Glo Luminescences Protocol on a GloMax plate reader (Promega: Catalog #E7031). The blank control was set up which included all the assay components, except the addition of appropriate substrates (replaced with equal volume of kinase assay buffer). The corrected activity for each protein kinase target was deter‐ mined by removing the blank control value. IC50 determination for inhibitor against VEGFR‐2 was estimated by generating a graph of log inhibitor vs normalized response with variables.

[4] = system: HepG2 cells; parameters: method as in PMID 29901131; settings: HepG2 liver cancer cells; cited from earlier work

Sequence of VEGFR-2 (P35968 20-1356): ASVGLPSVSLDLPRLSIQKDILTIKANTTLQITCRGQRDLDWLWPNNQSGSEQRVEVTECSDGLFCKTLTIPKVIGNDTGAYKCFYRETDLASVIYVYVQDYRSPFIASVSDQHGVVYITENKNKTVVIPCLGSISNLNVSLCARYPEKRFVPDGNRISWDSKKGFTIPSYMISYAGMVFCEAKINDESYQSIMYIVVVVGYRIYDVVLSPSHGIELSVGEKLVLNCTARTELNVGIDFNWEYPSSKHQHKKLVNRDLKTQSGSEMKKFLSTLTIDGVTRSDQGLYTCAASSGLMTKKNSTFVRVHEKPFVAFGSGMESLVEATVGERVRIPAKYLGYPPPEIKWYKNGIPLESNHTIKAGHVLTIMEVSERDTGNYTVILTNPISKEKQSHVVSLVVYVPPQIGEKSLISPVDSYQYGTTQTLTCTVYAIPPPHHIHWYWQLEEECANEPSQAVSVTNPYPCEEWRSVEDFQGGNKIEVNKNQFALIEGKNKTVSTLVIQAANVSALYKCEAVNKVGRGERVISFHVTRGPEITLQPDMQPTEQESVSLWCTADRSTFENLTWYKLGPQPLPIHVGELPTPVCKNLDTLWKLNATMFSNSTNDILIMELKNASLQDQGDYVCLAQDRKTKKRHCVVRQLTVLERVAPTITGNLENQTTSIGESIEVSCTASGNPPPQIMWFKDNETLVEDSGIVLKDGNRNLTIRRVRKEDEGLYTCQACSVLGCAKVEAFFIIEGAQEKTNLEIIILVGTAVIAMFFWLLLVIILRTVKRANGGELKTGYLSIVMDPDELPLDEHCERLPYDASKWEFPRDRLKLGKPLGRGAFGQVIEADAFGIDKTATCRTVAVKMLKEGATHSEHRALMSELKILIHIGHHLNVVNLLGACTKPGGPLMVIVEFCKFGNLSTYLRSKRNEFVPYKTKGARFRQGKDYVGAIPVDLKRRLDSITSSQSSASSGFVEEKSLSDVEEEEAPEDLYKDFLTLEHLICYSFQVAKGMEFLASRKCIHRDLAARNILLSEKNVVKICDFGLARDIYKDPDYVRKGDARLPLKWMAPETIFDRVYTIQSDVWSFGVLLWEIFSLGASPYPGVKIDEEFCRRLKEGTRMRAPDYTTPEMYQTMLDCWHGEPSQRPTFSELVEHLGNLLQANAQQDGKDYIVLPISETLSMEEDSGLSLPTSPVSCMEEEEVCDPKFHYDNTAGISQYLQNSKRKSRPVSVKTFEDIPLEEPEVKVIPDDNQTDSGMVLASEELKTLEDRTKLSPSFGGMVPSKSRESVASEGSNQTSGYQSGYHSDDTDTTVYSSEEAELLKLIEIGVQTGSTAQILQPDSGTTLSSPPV

SMILES	melting point [°C]	IC50 [3] [µM]	fold more potent than sunitinib, VEGFR-2 inhibition ([3]; ratio of IC50 to sunitinib) [fold]	IC50 [1] [µM]	IC50 ([2]; Homo sapiens, HepG2, MTT assay) [µM]	IC50 ([2]; MTT assay) [µM]	fold more potent than sunitinib, MCF-7 [1] [fold]	phase of cell cycle arrest [4]
NNC(=O)c1ccc(/N=C2\C(=O)Nc3ccccc32)cc1 [Compound 8a]	–	–	–	27.2 ± 1.3	24.9 ± 1.21	–	–	–
CCOC(=O)c1ccc(/N=C2\C(=O)Nc3ccc(F)cc32)cc1 [Compound 7b]	–	–	–	3.81 ± 0.2	2.23 ± 0.11	–	–	–
CCN(CC)CCNC(=O)c1c(C)[nH]c(/C=C2\C(=O)Nc3ccc(F)cc32)c1C [Sunitinib, reference compound]	–	–	–	4.77 ± 0.29	2.23 ± 0.11	–	–	–
O=C1Nc2ccccc2/C1=N/c1ccc(C(=O)O)cc1 [Compound 3a]	–	–	–	51.6 ± 2.5	62.4 ± 2.61	–	–	–
CNC(=S)NNC(=O)c1ccc(N=C2C(=O)Nc3ccccc32)cc1 [Compound 5a, N-Methyl-2-(4-((2-oxoindolin-3-ylidene)amino)benzoyl)hydrazinecarbothioamide]	249 to 251	–	–	6.42 ± 0.55	5.48 ± 0.27	–	–	–
NNC(=O)c1ccc(/N=C2\C(=O)Nc3ccc(F)cc32)cc1 [Compound 8b]	–	–	–	40.7 ± 2.8	53.9 ± 2.63	–	–	–
CCOC(=O)c1ccc(/N=C2\C(=O)Nc3ccccc32)cc1 [Compound 7a]	–	–	–	14.9 ± 0.7	10.9 ± 0.53	–	–	–
CNC(=O)c1cc(Oc2ccc(NC(=O)Nc3ccc(Cl)c(C(F)(F)F)c3)cc2)ccn1 [Sorafenib]	–	–	–	–	–	–	–	S phase and G2/M phase
CNC(=S)NNC(=O)c1ccc(N=C2C(=O)Nc3ccc(F)cc32)cc1 [Compound 5b, 2-(4-((5-Fluoro-2-oxoindolin-3-ylidene)amino)benzoyl)-N-methylhydrazinecarbothioamide]	252 to 254	0.16 ± 0.008	–	0.99 ± 0.04	2.62 ± 0.13	–	5	–
O=C1Nc2ccc(F)cc2/C1=N/c1ccc(C(=O)O)cc1 [Compound 3b]	–	–	–	43.9 ± 2.1	51.2 ± 2.5	–	–	–

Further lines, with some results ahead:

melting point [°C]	IC50 [3] [µM]	fold more potent than sunitinib, VEGFR-2 inhibition ([3]; ratio of IC50 to sunitinib) [fold]	SMILES	IC50 [1] [µM]	IC50 ([2]; Homo sapiens, HepG2, MTT assay) [µM]	IC50 ([2]; MTT assay) [µM]	fold more potent than sunitinib, MCF-7 [1] [fold]	phase of cell cycle arrest [4]
234 to 236	–	–	Cc1ccc(C=NNC(=O)c2ccc(N=C3C(=O)Nc4ccccc43)cc2)cc1 [Compound 10d, N′-(4-Methylbenzylidene)-4-((2-oxoindolin-3-ylidene)amino)benzohydrazide]	13.7 ± 0.4	21.4 ± 1.05	–	–	–
237 to 239	–	–	O=C1Nc2ccccc2C1=Nc1ccc(C(=O)NN=Cc2ccc(Cl)cc2)cc1 [Compound 10b, N′-(4-Chlorobenzylidene)-4-((2-oxoindolin-3-ylidene)amino)benzohydrazide]	23.8 ± 1.21	33.8 ± 1.65	–	–	–
187 to 189	–	–	O=C1Nc2ccccc2C1=Nc1ccc(C(=O)NN2C(=O)c3ccccc3C2=O)cc1 [Compound 12a, N-(1,3-Dioxoisoindolin-2-yl)-4-((2-oxoindolin-3-ylidene)amino)benzamide]	78.4 ± 3.81	130 ± 6.37	–	–	–
219 to 220	0.18 ± 0.009	–	O=C1Nc2ccccc2C1=Nc1ccc(-c2n[nH]c(=S)o2)cc1 [Compound 15a, 3-((4-(5-Thioxo-4,5-dihydro-1,3,4-oxadiazol-2-yl)phenyl)imino)indolin-2-one]	2.77 ± 0.1	2.3 ± 0.18	2.3 ± 0.18	–	–
206 to 208	–	–	CCOC(=O)CC(C)=NNC(=O)c1ccc(N=C2C(=O)Nc3ccccc32)cc1 [Compound 14a, Ethyl 3-(2-(4-((2-oxoindolin-3-ylidene)amino)benzoyl)hydrazono)butanoate]	7.37 ± 0.4	10.3 ± 0.81	–	–	–
203 to 205	–	–	O=C1Nc2ccc(F)cc2C1=Nc1ccc(C(=O)NNC(=S)Nc2ccccc2)cc1 [Compound 17b, 2-(4-((5-Fluoro-2-oxoindolin-3-ylidene)amino)benzoyl)-N-phenylhydrazinecarbothioamide]	25.8 ± 1.3	9.81 ± 0.48	–	–	–
200 to 201	–	–	O=C1Nc2ccccc2C1=Nc1ccc(C(=O)NN=Cc2cccc([N+](=O)[O-])c2)cc1 [Compound 10c, N′-(3-Nitrobenzylidene)-4-((2-oxoindolin-3-ylidene)amino)benzohydrazide]	14.6 ± 0.71	21 ± 1.02	–	–	–
213 to 215	–	–	CCOC(=O)CC(C)=NNC(=O)c1ccc(N=C2C(=O)Nc3ccc(F)cc32)cc1 [Compound 14b, Ethyl 3-(2-(4-((5-Fluoro-2-oxoindolin-3-ylidene)amino)benzoyl)hydrazono)butanoate]	32.9 ± 1.61	13.8 ± 0.67	–	–	–
231 to 233	–	–	O=C1Nc2ccc(F)cc2C1=Nc1ccc(-c2n[nH]c(=S)o2)cc1 [Compound 15b, 5-Fluoro-3-((4-(5-thioxo-4,5-dihydro-1,3,4-oxadiazol-2-yl)phenyl)imino)indolin-2-one]	19.6 ± 1.8	12.7 ± 0.62	–	–	–
202 to 204	–	–	CN(C)c1ccc(C=NNC(=O)c2ccc(N=C3C(=O)Nc4ccc(F)cc43)cc2)cc1 [Compound 10f, N′-(4-(Dimethylamino)benzylidene)-4-((5-fluoro-2-oxoindolin-3-ylidene)amino)benzohydrazide]	11 ± 0.59	19.2 ± 0.94	–	–	–
239 to 240	0.358 ± 0.019	–	COc1ccc(C=NNC(=O)c2ccc(N=C3C(=O)Nc4ccccc43)cc2)cc1 [Compound 10e, N′-(4-Methoxybenzylidene)-4-((2-oxoindolin-3-ylidene)amino)benzohydrazide]	4.62 ± 0.2	8.81 ± 0.43	–	–	–
227 to 229	0.087 ± 0.004	1.6	O=C1Nc2ccc(F)cc2C1=Nc1ccc(C(=O)NN=Cc2ccc(Br)cc2)cc1 [Compound 10g, N′-(4-Bromobenzylidene)-4-((5-fluoro-2-oxoindolin-3-ylidene)amino)benzohydrazide]	0.74 ± 0.03	2.79 ± 0.14	–	6	–
225 to 227	–	–	O=C1Nc2ccc(F)cc2C1=Nc1ccc(C(=O)NN2C(=O)c3ccccc3C2=O)cc1 [Compound 12b, N-(1,3-Dioxoisoindolin-2-yl)-4-((5-fluoro-2-oxoindolin-3-ylidene)amino)benzamide]	33.8 ± 1.7	23.5 ± 1.15	–	–	–
220 to 222	–	–	O=C1Nc2ccccc2C1=Nc1ccc(C(=O)NN=Cc2ccc([N+](=O)[O-])cc2)cc1 [Compound 10a, N′-(4-Nitrobenzylidene)-4-((2-oxoindolin-3-ylidene)amino)benzohydrazide]	40 ± 2	8.24 ± 0.4	–	–	–
